Structures are written as SMILES.

The assay can be described thus: Inhibition of L1 (unknown origin) using cefazolin as substrate incubated for 5 mins by Agilent UV8453 spectrometric analysis.

By IC50 is commonly meant the concentration needed to halve the response being measured. A lower IC50 goes with higher potency. Turning to `O=C(NNC(=S)S)c1ccccc1O`, the IC50 worked out at 380 nM.

For the origin of these results see BindingDB's records for PubMed 34225181 (University of Electronic Science and Technology of China, 2021).
